Experimental data taken from patent US4559362A, “Immunopotentiator” (Zaidan Hojin Biseibutsu Kagaku Kenkyu Kai, priority 1982, dated 1985).

System: IMC ascites tumor
Test: Concomitant treatment with bleomycin and spermidine on IMC ascites tumor, survival
Assay type: in vivo, CDF1 mice
Experimental: The pharmacological effects of spermidine will be illustrated by reference to the following experimental examples, in which spermidine was administered as its phosphate dissolved in physiological saline.
(c) 1×10^6 IMC cancer cells were transplanted into CDF1 mice by intraperitoneal injection (Day 0). Bleomycin (5 mg/kg) was administered once daily for 5 consecutive days, and spermidine (5 mg/kg) was administered a total of 10 times on alternative days. The effect of concomitant treatment with spermidine and the anticancer drug was evaluated by considering the number of days that the mice survived.

Substance: bleomycin [reference compound]
- Survival rate on Day 60 (bleomycin (5 mg/kg) alone): 0/10
- Survival period (bleomycin (5 mg/kg) alone, once daily for 5 consecutive days): 31.2 ± 9.4 days
- Increase of life span (bleomycin (5 mg/kg) alone, control = 100): 176%
- life span increase compared with the control group (bleomycin alone): 76%
